{"source": "patent US20250032624A1", "about": "“SMALL MOLECULE DEGRADATION METHODS FOR TREATING ALS/FTD” (University of Florida Research Foundation, Incorporated, priority 2021, published 2025)", "key": {"[1]": {"system": "C9orf72 and transcriptome", "test": "RNA-seq in c9ALS/FTD patient-derived iPSCs", "type": "cell-based, human", "method": "Total RNA integrity was confirmed by Agilent 2100 Bioanalyzer RNA nano chip, and the quantity was measured by Qubit 2.0 Fluorometer (Invitrogen). The library preparation was performed using NEBNext Ultra II Directional RNA kit (NEB, E7760) in combination with NEBNext rRNA depletion module (NEB, E6310) and RNA fragmentation module (NEB, E6150S), following manufacturer's recommendations. Briefly, a total of 200 ng RNA was first processed with depleted of ribosomal RNA, and then randomly fragmented to achieve range between 150 to 300 nucleotides. The fragmented RNAs were random primed for the first-strand synthesis, and the second strand was synthesized with dUTPs. The strand information is thus preserved by using USER enzyme (Uracil-specific excision reagent). The cDNA was PCR amplified and pooled equimolar to load onto the NextSeq 500 v2.5 flow cell and sequenced with 2×40 bp paired-end method. The output fastq files were aligned using STAR 3^5. The read counts of specific regions were extracted using samtools.^36 The global differential gene expression analysis was performed using featureCounts and Deseq2.^37,38"}, "C9orf72": {"system": "C9orf72", "test": "C9orf72 transcript RT-qPCR in healthy iPSNs", "type": "cell-based, human", "method": "Differentiated motor neurons (iPSNs) were derived from the iPSCs listed in the previous section. The differentiation process was based on a previously reported method with slight modifications^33,34. Briefly, iPSCs were plated into Matrigel-coated 100 mm dishes (30-40% confluence). Neuroepithelial induction was performed by replacing the Basal medium with Stage 1 medium [47.5% IMDM (Iscove's Modified Dulbecco's Medium), 47.5% F12 medium, 1% NEAA (Non-Essential Amino Acids) (Life Technologies), 2% B27 (Invitrogen), 1% N2 (Invitrogen), 1% PSA (Penicillin-Streptomycin-Amphotericin), 0.2 μM LDN193189 (Stemgent), 10 μM SB431542 (STEMCELL Technologies) and 3 μM CHIR99021 (Sigma-Aldrich)]. The medium was changed daily for 6 days, after which cells were detached from plates using Accutase (STEMCELL Technologies). Cells were seeded into 6-well plates (1.5×10^6 cells/well) in 3 mL of Stage 2 medium [Stage 1 medium supplemented with 0.1 μM All-trans RA (Sigma-Aldrich) and 1 μM SAG (Cayman Chemicals)]. Cells were maintained in Stage 2 medium, with daily medium changes, through Day 11 of the differentiation process. On Day 12, the Stage 2 cell medium was removed and replaced with Stage 3 medium [47.5% IMDM, 47.5% F12 medium, 1% NEAA, 2% B27, 1% N2, 1% PSA, 0.1 μM Compound E (Millipore; Catalog #: 565790), 2.5 μM DAPT (Sigma-Aldrich), 0.1 μM db-cAMP (Millipore), 0.5 μM All-trans RA, 0.1 μM SAG, 20 ng/mL ascorbic acid, 10 ng/mL BDNF (STEMCELL Technologies), and 10 ng/mL GDNF (STEMCELL Technologies)]. This medium was replaced every three days until the end of the differentiation process. Typically, a minimum of 18 days is required to produce immature differentiated motor neurons; 30 days of differentiation is the standard for producing mature differentiated spinal neurons. The cells can be maintained in medium for an additional 14-28 days after reaching maturation. […]\nFor iPSNs cells were differentiated, following the protocol outlined above, until Day 15. […] RNA was extracted as described above and the expression levels of C9orf72 variants was determined by RT-qPCR and normalized to GAPDH. […]"}, "[2]": {"system": "poly(GP), poly(GA) and TDP-43 inclusions", "test": "Immunohistochemistry of cortex slices of +/+PWR500 mice", "type": "in vivo, mouse", "settings": "IHC", "method": "A total of 20 age- and gender-matched mice (12 +/+PWR500 [5 Male and 7 Female] and 8 WT [4 Male and 4 Female]), ranging from 18-21 weeks old were used in therapeutic efficacy studies (Table 4). Mice were treated with a single bolus injection of 33 nmol of compound 2 formulated in 1% (v/v) DMSO/99% water, administered by an intracerebroventricular injection (ICV). Three weeks post injection, mice were euthanized, and tissue was harvested for study.\nPostmortem brain tissue was harvested and sliced along the sagittal plane at the midline. The right hemisphere was stored for 48 hours in 10% neutral buffered formalin. Tissue processing, embedding and sectioning were then performed by the Scripps Florida Histology Core. Formalin-fixed tissue was processed on a Sakura Tissue-Tek VIP 5 paraffin processor. Tissue was first embedded in paraffin, sectioned at 4 μm, and then mounted on positively charged slides. Slides were stained with primary antibody (see below) using the Leica BOND-MAX platform. Slides were then subjected to the Leica Refine Detection Kit containing the secondary polymer, DAB chromagen, and the counterstain. Slides were dehydrated in graded alcohols and cleared in xylene, before being cover slipped with a permanent mounting medium (Cytoseal 60; Thermo Scientific)."}, "[3]": {"system": "iPSC differentiated motor neurons (iPSNs)", "test": "Cell viability in iPSNs", "type": "cell-based, human", "settings": "doses up to 1 μM", "method": "Patient-derived LCLs were seeded overnight in 96-well plates (˜10^4 cells/well) and treated with compounds for 96 hours. Cell viability was measured using the CellTiter-Fluor™ Cell Viability Assay (Promega) per the manufacturer's protocol. iPSC cell viability was measured by seeding cells in Matrigel-coated 6-well plates with Basal medium (iPSC maintenance described above). After overnight incubation, the medium was replaced with fresh medium containing compounds diluted in 0.1% DMSO. Cells were treated with compound for 96 hours. Cell viability was measured using the AlamarBlue™ Cell Viability Reagent (DAL1025, Thermo Fisher Scientific) per the manufacturer's protocol. iPSN cell viability was measured by […]"}}, "data": [{"smiles": "CCOC(=O)C1=C(Nc2ccccc2)S/C(=C\\c2ccc(OCCOCCOCCOCCNC(=O)CCCOc3ccc4c(c3)c3cc5c(C(=O)N[C@H](C)CN(C)C)nccc5c(C)c3n4C)c(O)c2)C1=O", "note": "[ALS Compound Formula I]", "values": [{"measurement": "SOCS1 regulation by RNA-seq", "setting": "[1]", "result": "not found to be significantly down-regulated"}, {"measurement": "intron 1:exon 2 ratio", "setting": "[1]; 50 nM", "result": "significantly reduced"}, {"measurement": "off-targets transcriptome-wide", "setting": "[1]; 50 nM", "result": "minimal off-targets"}, {"measurement": "total C9orf72 read counts", "setting": "[1]; 50 nM", "result": "no effect"}, {"measurement": "effect on exon 2-3 levels", "setting": "C9orf72", "result": "No effect"}, {"measurement": "effect on intron 1b levels", "setting": "C9orf72", "result": "No effect"}, {"measurement": "effect on intron 1 levels", "setting": "C9orf72", "result": "No effect"}, {"measurement": "TDP-43 inclusions", "setting": "[2]", "result": "significantly reduced"}, {"measurement": "poly(GA) inclusions", "setting": "[2]", "result": "significantly reduced"}, {"measurement": "poly(GP) inclusions", "setting": "[2]", "result": "significantly reduced"}, {"measurement": "toxicity", "setting": "[3]", "result": "no significant toxicity"}]}]}
